Measured values reported in patent publication US9238658B2, “Substituted piperidinyl-carboxamide derivatives useful as SCD 1 inhibitors” (Janssen Pharmaceutica NV, priority 2011, dated 2016).

Target: SCD1 (Rattus norvegicus (Rat), UniProt P07308)
Experiment: SCD1 enzymatic assay in rat liver microsomes (RLM)
Assay type: biochemical
Settings: for inhibition at 1 µM: 1 μM test compound
Protocol: Step 1: Preparation of Rat Liver Microsome (RLM)
Sprague Dawley rats from Charles River (200-225 g) underwent 2-cycle of fast-re-feeding (24-hour fast followed by 24-hour feeding with fat-free high carbohydrate diet, Research Diet, D00042802). The livers were removed and homogenized 1:4 (w/v) with pre-chilled, homogenizing buffer (10 mM Tris-HCl, 0.25 M sucrose, 1 mM EDTA, pH 7.4, supplemented with protease inhibitor cocktail). The homogenate was spun at 12,000×g for 15 min at 4° C. The supernatant was then re-centrifuged at 100,000×g for 60 min at 4° C. The pellet was re-suspended in 2 ml pre-chilled […] potassium phosphate buffer, pH 7.2, 10 mM EDTA at a concentration of 20 mg/ml. The resulting rat liver microsome (RLM) preparation was stored at […].
Step 2: SCD1 Enzymatic Assay in RLM:
The SCD1 enzymatic assay was done in a volume of 50 μL using 10 μg of RLM (prepared as described above) in a 96-well polypropylene plate (enzyme reaction buffer contains 0.1 M K-Phosphate Buffer, 10 mM ATP, 6 mM MgCl2, 1 mM CoA, 1 mM β-NADH, 1.6 mM L-glutathione, 20 μM Stearoyl-CoA). Stearoyl-[9,10-^3H]—CoA (ARC-0390, 1 mCi/mL, 60 Ci/mmol,) was added at a final concentration of 2 μCi/mL. Test compound was then added to the reaction mixture at the selected concentration. After incubation at room temperature for 2 hours, 5 μL 1 N HCl was added to stop the reaction, followed by addition of 25 μL of 10% charcoal. The reaction mixture was then transferred to 96-well Multiscreen plate (Millipore, Cat# MSFCN6B50). [^3H2O] was collected into Opti-plate (PE, Cat #6005290) by centrifuge, at 1,000 rpm for 2 minutes. 150 μL Microscint 40 (PE, cat #6013641) was then added to each well and counted on Topcount for [^3H] counts per minute (cpm). The measured cpm values were fitted with Sigmoidal dose-response curve fit with Graphpad Prism.

Sequence of SCD1 (P07308 whole entry): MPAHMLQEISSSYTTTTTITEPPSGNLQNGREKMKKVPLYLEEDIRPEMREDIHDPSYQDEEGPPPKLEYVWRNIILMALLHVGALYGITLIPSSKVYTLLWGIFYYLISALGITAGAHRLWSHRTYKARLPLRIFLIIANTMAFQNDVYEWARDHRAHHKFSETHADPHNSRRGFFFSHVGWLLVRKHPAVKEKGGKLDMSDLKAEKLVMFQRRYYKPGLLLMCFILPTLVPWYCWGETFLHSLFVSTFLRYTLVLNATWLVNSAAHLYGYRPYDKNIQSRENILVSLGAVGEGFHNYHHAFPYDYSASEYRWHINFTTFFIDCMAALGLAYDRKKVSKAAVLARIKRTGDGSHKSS

Structure (SMILES)	inhibition at 1 µM	IC50
CNC(=O)c1cccc(NC(=O)N2CCC(N3C(=O)Cc4ccccc43)CC2)c1 [Compound 1, N-(3-(methylcarbamoyl)phenyl)-4-(2-oxoindolin-1-yl)piperidine-1-carboxamide]	7%	
CCCc1nc2ccc(NC(=O)N3CCC(c4noc5ccc(F)cc45)CC3)cc2o1 [Compound 7, 4-(5-fluorobenzo[d]isoxazol-3-yl)-N-(2-propylbenzo[d]oxazol-6-yl)piperidine-1-carboxamide]	55%	1010 nM
CCCCc1cc(NC(=O)N2CCC(c3noc4ccc(F)cc34)CC2)ccc1F [Compound 8, N-(3-butyl-4-fluorophenyl)-4-(5-fluorobenzo[d]isoxazol-3-yl)piperidine-1-carboxamide]	12%	
CNC(=O)c1cccc(NC(=O)N2CCC(c3noc4cc(F)ccc34)CC2)c1 [Compound 10, 4-(6-fluorobenzo[d]isoxazol-3-yl)-N-(3-(methylcarbamoyl)phenyl)piperidine-1-carboxamide]	23%	
Cc1csc(NC(=O)N2CCC(c3noc4cc(F)ccc34)CC2)n1 [Compound 11, 4-(6-fluorobenzo[d]isoxazol-3-yl)-N-(4-methylthiazol-2-yl)piperidine-1-carboxamide]	40%	
CCOC(=O)c1csc(NC(=O)N2CCC(N3CCc4ccc(F)cc43)CC2)n1 [Compound 22, ethyl 2-(4-(6-fluoroindolin-1-yl)piperidine-1-carboxamido)thiazole-4-carboxylate]	8%	> 1000 nM
CNC(=O)c1csc(NC(=O)N2CCC(N3CCc4ccc(F)cc43)CC2)n1 [Compound 23, 2-(4-(6-fluoroindolin-1-yl)piperidine-1-carboxamido)-N-methylthiazole-4-carboxamide]	20%	> 1000 nM
NC(=O)c1csc(NC(=O)N2CCC(N3CCc4ccc(F)cc43)CC2)n1 [Compound 26, 2-(4-(6-fluoroindolin-1-yl)piperidine-1-carboxamido)thiazole-4-carboxamide]	62%	682 nM
CNC(=O)Cc1csc(NC(=O)N2CCC(N3CCc4ccc(F)cc43)CC2)n1 [Compound 28, 4-(6-fluoroindolin-1-yl)-N-(4-(2-(methylamino)-2-oxoethyl)thiazol-2-yl)piperidine-1-carboxamide]	22%	> 1000 nM
NC(=O)Cc1csc(NC(=O)N2CCC(N3CCc4ccc(F)cc43)CC2)n1 [Compound 30, N-(4-(2-amino-2-oxoethyl)thiazol-2-yl)-4-(6-fluoroindolin-1-yl)piperidine-1-carboxamide]	57%	845 nM
O=C(Nc1nc(CN2CCCCC2)cs1)N1CCC(N2CCc3ccc(F)cc32)CC1 [Compound 31, 4-(6-fluoroindolin-1-yl)-N-(4-(piperidin-1-ylmethyl)thiazol-2-yl)piperidine-1-carboxamide]	44%	
CC(C)(C)[Si](C)(C)OC1CCc2nc(NC(=O)N3CCC(N4CCc5ccc(F)cc54)CC3)sc2C1 (stereo not drawn) [Compound 32, N-(6-((tert-butyldimethylsilyl)oxy)-4,5,6,7-tetrahydrobenzo[d]thiazol-2-yl)-4-(6-fluoroindolin-1-yl)piperidine-1-carboxamide]	31%	
CC(C)(C)OC(=O)N1CCc2nc(NC(=O)N3CCC(N4CCc5ccc(F)cc54)CC3)sc2C1 [Compound 34, tert-butyl 2-(4-(6-fluoroindolin-1-yl)piperidine-1-carboxamido)-6,7-dihydrothiazolo[5,4-c]pyridine-5(4H)-carboxylate]	35%	
CC(=O)N1CCc2nc(NC(=O)N3CCC(N4CCc5ccc(F)cc54)CC3)sc2C1 [Compound 40, N-(5-acetyl-4,5,6,7-tetrahydrothiazolo[5,4-c]pyridin-2-yl)-4-(6-fluoroindolin-1-yl)piperidine-1-carboxamide]	46%	
CCOC(=O)c1cccc(NC(=O)N2CCC(N3CCc4ccc(F)cc43)CC2)c1 [Compound 41, ethyl 3-(4-(6-fluoroindolin-1-yl)piperidine-1-carboxamido)benzoate]	53%	534 nM
CCOC(=O)c1ccc(NC(=O)N2CCC(N3CCc4ccc(F)cc43)CC2)cc1 [Compound 42, ethyl 4-(4-(6-fluoroindolin-1-yl)piperidine-1-carboxamido)benzoate]	21%	
O=C(Nc1ccc(CO)cc1)N1CCC(N2CCc3ccc(F)cc32)CC1 [Compound 44, 4-(6-fluoroindolin-1-yl)-N-(4-(hydroxymethyl)phenyl)piperidine-1-carboxamide]	31%	
O=C(Nc1ccc2c(c1)CNCC2)N1CCC(N2CCc3ccc(F)cc32)CC1 [Compound 46, 4-(6-fluoroindolin-1-yl)-N-(1,2,3,4-tetrahydroisoquinolin-7-yl)piperidine-1-carboxamide]	27%	
NC(=O)c1cc(NC(=O)N2CCC(N3CCc4ccc(F)cc43)CC2)ccc1CO [Compound 48, N-(3-carbamoyl-4-(hydroxymethyl)phenyl)-4-(6-fluoroindolin-1-yl)piperidine-1-carboxamide]	55%	909 nM
COC(=O)Cc1cnc(NC(=O)N2CCC(N3CCc4ccc(F)cc43)CC2)s1 [Compound 49, methyl 2-(2-(4-(6-fluoroindolin-1-yl)piperidine-1-carboxamido)thiazol-5-yl)acetate]	48%	
CCOC(=O)Cc1csc(NC(=O)N2CCC(c3noc4ccc(F)cc34)CC2)n1 [Compound 51, ethyl 2-(2-(4-(5-fluorobenzo[d]isoxazol-3-yl)piperidine-1-carboxamido)thiazol-4-yl)acetate]	68%	579 nM
COC(=O)Cc1cnc(NC(=O)N2CCC(c3noc4ccc(F)cc34)CC2)s1 [Compound 52, methyl 2-(2-(4-(5-fluorobenzo[d]isoxazol-3-yl)piperidine-1-carboxamido)thiazol-5-yl)acetate]	15%	
CCN1CCc2nc(NC(=O)N3CCC(N4CCc5ccc(F)cc54)CC3)sc2C1 [Compound 53, N-(5-ethyl-4,5,6,7-tetrahydrothiazolo[5,4-c]pyridin-2-yl)-4-(6-fluoroindolin-1-yl)piperidine-1-carboxamide]	34%	
CCOC(=O)CN1CCc2nc(NC(=O)N3CCC(N4CCc5ccc(F)cc54)CC3)sc2C1 [Compound 56, ethyl 2-(2-(4-(6-fluoroindolin-1-yl)piperidine-1-carboxamido)-6,7-dihydrothiazolo[5,4-c]pyridin-5(4H)-yl)acetate]	42%	
NC(=O)CN1CCc2nc(NC(=O)N3CCC(N4CCc5ccc(F)cc54)CC3)sc2C1 [Compound 57, N-(5-(2-amino-2-oxoethyl)-4,5,6,7-tetrahydrothiazolo[5,4-c]pyridin-2-yl)-4-(6-fluoroindolin-1-yl)piperidine-1-carboxamide]	38%	
CNC(=O)c1cccc(NC(=O)N2CCC(c3c[nH]c4ccccc34)CC2)c1 [Compound 64, 4-(1H-indol-3-yl)-N-(3-(methylcarbamoyl)phenyl)piperidine-1-carboxamide]	15%	
Cc1csc(NC(=O)N2CCC(c3c[nH]c4ccccc34)CC2)n1 [Compound 65, 4-(1H-indol-3-yl)-N-(4-methylthiazol-2-yl)piperidine-1-carboxamide]	2%	
